Usually EC50 stands for the concentration giving half of the maximal effect.

The values below come from paper PMC10353061 (ACS Pharmacology & Translational Science, 2023).

The test system of one experiment is HCT116 colon cancer cell. The following applies: cited from earlier work.
Another experiment concerns SW620 cells. The experiment in a line: Inhibition of SW620 cells. It is filed as cell-based. The following applies: Homo sapiens, SW-620, in the combination 9 at constant 0.25 μM.

For the molecule `COC(=O)c1ccc(NS(=O)(=O)c2ccc(Br)cc2)cc1` [Compound 1], in the experiment on HCT116 colon cancer cell, the “IC50, HCT116 colon cancer cell growth” value is given as “submicromolar”.
In the case of `O=c1[nH]cc(F)c(=O)[nH]1` [Compound 5-FU, 5-fluorouracil, reference compound], in the experiment on SW620 cells, the 50% effective concentration (EC50) worked out at 103 µM.
